Test results reported in ChEMBL document CHEMBL1123893, “Synthesis and physicochemical properties of thiadiazolo[3,2-a]pyrimidinesulfonamides and thiadiazolo[3,2-a]triazinesulfonamides as candidates for topically effective carbonic anhydrase inhibitors” (J Med Chem, 1987).
Converted amounts (≈) assume the structure as drawn.

Tests used:
[1] = biological target: Carbonic anhydrase
Description: Evaluated for its activity against carbonic anhydrase (CA) in anesthetized rabbits

[2] = organism: Oryctolagus cuniculus
[3] = organism: Oryctolagus cuniculus; experiment: Evaluated for effect on intraocular pressure(IOP) in rabbit after 1 hour; format: functional, Eye
[4] = organism: Oryctolagus cuniculus; conditions: rabbit, in vivo
Description: Evaluated for first order rate constant (Kin) for transcorneal penetration in anesthetized rabbits

[5] = physchem; conditions: buffer
Description: Evaluated for sulfonamide pKa, free acid water solubility

[6] = physchem
Description: Compound was evaluated for its solubility in water

[7] = octanol/water, pH 7.4
Description: Evaluated for lipid solubility measured as partition coefficient at a pH 7.4 (CHCl3/buffer)

SMILES | I50 [1] | Effect [2] | other results
NS(=O)(=O)c1nn2c(=O)n(CCCl)c(=O)nc2s1 | 18 nM | 0 mmHg | –
CCn1c(=O)nc2sc(S(N)(=O)=O)nn2c1=O | 20 nM | 0 mmHg | –
NS(=O)(=O)c1nn2c(O)cc(=O)nc2s1 | 37 nM | – | –
Cn1nc(S(N)(=O)=O)s/c1=N\C(=O)C(F)(F)F | – | – | Effect [3]: -3.1 mmHg; Kin [4]: 0.014 h⁻¹; pKa [5]: 6.6; solubility ([6]; water): 8 mM (≈ 2320 µg/mL)
NS(=O)(=O)c1nn2c(=O)[nH]c(=O)nc2s1 | 20 nM | 0 mmHg | pKa [5]: 8.3; solubility ([6]; water): 4 mM (≈ 997 µg/mL)
COc1cc(=O)nc2sc(S(N)(=O)=O)nn12 | 50 nM | 0 mmHg | –
NS(=O)(=O)C1=NN2CCS(=O)(=O)N=C2S1 | 14 nM | 0 mmHg | –
Cn1c(=O)nc2sc(S(N)(=O)=O)nn2c1=O | 20 nM | -1 mmHg | –
CC(=O)/N=c1/sc(S(N)(=O)=O)nn1C [METHAZOLAMIDE] | – | -0.6 mmHg | Kin [4]: 0.006 h⁻¹; log D [7]: 0.06; solubility ([6]; buffer): 5 mM (≈ 1180 µg/mL)
NS(=O)(=O)C1=NN2C(=NC(=O)NS2(=O)=O)S1 | 50 nM | 0 mmHg | –
